Reference: patent US9670227B2, “Thienopyrimidine derivatives, a process for their preparation and pharmaceutical compositions containing them” (LES LABORATOIRES SERVIER, priority 2013, dated 2017)

Target: Mcl-1 protein (UniProtKB primary accession number: Q07820) (Homo sapiens, UniProt Q07820)
Assay: Inhibition of Mcl-1 by fluorescence polarisation, Method 1
Format: binding
Details: fluorescence polarisation; Method 1, or Method 2; read-out: IC50 (M) Mcl-1 FP
In short: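 Buffer of 10 mM HEPES pH 7.4 with 150 mM NaCl and 0.05% Tween 20 held 5 nM Mcl-1 and 1 nM fluorescein-tagged ligand (final). Compounds were tested as 11-point serial dilutions at 5% final DMSO, and binding was read by FP.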

Mcl-1 protein, sequence (Q07820 whole entry): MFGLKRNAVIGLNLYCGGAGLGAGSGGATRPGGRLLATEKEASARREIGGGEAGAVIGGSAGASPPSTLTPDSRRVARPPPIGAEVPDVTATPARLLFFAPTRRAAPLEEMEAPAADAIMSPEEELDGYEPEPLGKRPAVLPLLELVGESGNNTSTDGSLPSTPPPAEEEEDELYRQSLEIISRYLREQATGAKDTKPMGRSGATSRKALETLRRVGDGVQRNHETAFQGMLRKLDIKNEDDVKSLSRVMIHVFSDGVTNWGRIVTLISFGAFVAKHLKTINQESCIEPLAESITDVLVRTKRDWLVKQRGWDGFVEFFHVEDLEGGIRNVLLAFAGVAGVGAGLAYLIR

SMILES	IC50
Cc1c(-c2c(-c3ccc(F)cc3)sc3ncnc(OC(Cc4ccccc4OCC4CCCO4)C(=O)O)c23)ccc(OCCN2CCOCC2)c1Cl [Example 648, (2R)-2-{[(5Sa)-5-{3-chloro-2-methyl-4-[2-(morpholin-4-yl)ethoxy]phenyl}-6-(4-fluorophenyl)thieno[2,3-d]pyrimidin-4-yl]oxy}-3-{2-[(2R)-tetrahydrofuran-2-ylmethoxy]phenyl}propanoic acid]	1.4e-08 M
COc1ccc(-c2c(-c3ccc(F)cc3)sc3ncnc(OC(Cc4ccccc4OCc4ccnc(N(C)C)n4)C(=O)O)c23)c(C)c1Cl [Example 660, (2R)-2-{[(5Sa)-5-(3-chloro-4-methoxy-2-methylphenyl)-6-(4-fluorophenyl)thieno[2,3-d]pyrimidin-4-yl]oxy}-3-(2-{[2-(dimethylamino)pyrimidin-4-yl]methoxy}phenyl)propanoic acid]	5.1e-08 M
COc1ccc(-c2c(-c3ccc(F)cc3)sc3ncnc(OC(Cc4ccccc4OCc4ccnn4CCN(C)C)C(=O)O)c23)c(C)c1Cl [Example 663, (2R)-2-{[(5Sa)-5-(3-chloro-4-methoxy-2-methylphenyl)-6-(4-fluorophenyl)thieno[2,3-d]pyrimidin-4-yl]oxy}-3-[2-({1-[2-(dimethylamino)ethyl]-1H-pyrazol-5-yl}methoxy)phenyl]propanoic acid]	2.5e-08 M
Cc1c(Cl)cccc1-c1c(-c2ccco2)sc2ncnc(OC(Cc3ccccc3OCCN3CCN(C)CC3)C(=O)O)c12 [Example 666, (2R)-2-{[(5Sa)-5-(3-chloro-2-methylphenyl)-6-(furan-2-yl)thieno[2,3-d]pyrimidin-4-yl]oxy}-3-{2-[2-(4-methylpiperazin-1-yl)ethoxy]phenyl}propanoic acid]	7.7e-08 M
Cc1c(Cl)cccc1-c1c(-c2ccco2)sc2ncnc(OC(Cc3ccccc3OCCN3CCN(C)CC3)C(=O)O)c12 [Example 667, (2S)-2-{[(5Ra)-5-(3-chloro-2-methylphenyl)-6-(furan-2-yl)thieno[2,3-d]pyrimidin-4-yl]oxy}-3-{2-[2-(4-methylpiperazin-1-yl)ethoxy]phenyl}propanoic acid]	2.1e-06 M
Cc1c(-c2c(-c3ccco3)sc3ncnc(OC(Cc4ccccc4OCc4ccccn4)C(=O)O)c23)ccc(O)c1Cl [Example 674, (2R)-2-{[(5Sa)-5-(3-chloro-4-hydroxy-2-methylphenyl)-6-(furan-2-yl)thieno[2,3-d]pyrimidin-4-yl]oxy}-3-[2-(pyridin-2-ylmethoxy)phenyl]propanoic acid]	2.1e-08 M
CC#Cc1sc2ncnc(OC(Cc3ccccc3OC)C(=O)O)c2c1-c1ccc(OCCN2CCOCC2)c(Cl)c1C [Example 685, (2R)-2-{[(5Sa)-5-{3-chloro-2-methyl-4-[2-(morpholin-4-yl)ethoxy]phenyl}-6-(prop-1-yn-1-yl)thieno[2,3-d]pyrimidin-4-yl]oxy}-3-(2-methoxyphenyl)propanoic acid]	1.2e-08 M
CC#Cc1sc2ncnc(O[C@H](Cc3ccccc3OC)C(=O)O)c2c1-c1ccc(OCCN2CCN(C)CC2)c(F)c1C [Example 686, (2R)-2-{[(5Ra)-5-{3-fluoro-2-methyl-4-[2-(4-methylpiperazin-1-yl)ethoxy]phenyl}-6-(prop-1-yn-1-yl)thieno[2,3-d]pyrimidin-4-yl]oxy}-3-(2-methoxyphenyl)propanoic acid]	1e-06 M

The next lines start with the values.

IC50	SMILES
9.6e-07 M	COc1ccccc1CC(Oc1ncnc2sc(-c3ccc(F)cc3)c(-c3ccc(OCCN4CCN(C)CC4)c(Cl)c3C)c12)C(=O)OCC(F)(F)F [Example 641, 2,2,2-trifluoroethyl (2R)-2-{[(5Sa)-5-{3-chloro-2-methyl-4-[2-(4-methylpiperazin-1-yl)ethoxy]phenyl}-6-(4-fluorophenyl)thieno[2,3-d]pyrimidin-4-yl]oxy}-3-(2-methoxyphenyl)propanoate]
2.2e-08 M	Cc1c(-c2c(-c3ccc(F)cc3)sc3ncnc(OC(Cc4ccccc4OCC4CCCO4)C(=O)O)c23)ccc(OCCN2CCN(CCCCN)CC2)c1Cl [Example 645, (2R)-2-{[(5Sa)-5-(4-{2-[4-(4-aminobutyl)piperazin-1-yl]ethoxy}-3-chloro-2-methylphenyl)-6-(4-fluorophenyl)thieno[2,3-d]pyrimidin-4-yl]oxy}-3-{2-[(2R)-tetrahydrofuran-2-ylmethoxy]phenyl}propanoic acid]
2.6e-08 M	COCCCc1ccccc1CC(Oc1ncnc2sc(-c3ccc(F)cc3)c(-c3ccc(OCCN4CCN(C)CC4)c(Cl)c3C)c12)C(=O)O [Example 655, (2R)-2-{[(5Sa)-5-{3-chloro-2-methyl-4-[2-(4-methylpiperazin-1-yl)ethoxy]phenyl}-6-(4-fluorophenyl)thieno[2,3-d]pyrimidin-4-yl]oxy}-3-[2-(3-methoxypropyl)phenyl]propanoic acid]
2.1e-08 M	Cc1c(-c2c(-c3ccc(F)cc3)sc3ncnc(OC(Cc4ccccc4OCC(F)(F)F)C(=O)O)c23)ccc(OCCN2CCOCC2)c1Cl [Example 657, (2R)-2-{[(5Sa)-5-{3-chloro-2-methyl-4-[2-(morpholin-4-yl)ethoxy]phenyl}-6-(4-fluorophenyl)thieno[2,3-d]pyrimidin-4-yl]oxy}-3-[2-(2,2,2-trifluoroethoxy)phenyl]propanoic acid]
1e-07 M	COc1ccc(-c2c(-c3ccc(F)cc3)sc3ncnc(OC(Cc4ccccc4OCCN4CCN(C)CC4)C(=O)O)c23)c(C)c1Cl [Example 661, (2R)-2-{[(5Sa)-5-(3-chloro-4-methoxy-2-methylphenyl)-6-(4-fluorophenyl)thieno[2,3-d]pyrimidin-4-yl]oxy}-3-{2-[2-(4-methylpiperazin-1-yl)ethoxy]phenyl}propanoic acid]
2.7e-07 M	COc1ccc(-c2c(-c3ccc(F)cc3)sc3ncnc(OC(Cc4ccccc4OCCN(C)C)C(=O)O)c23)c(C)c1Cl [Example 662, (2R)-2-{[(5Sa)-5-(3-chloro-4-methoxy-2-methylphenyl)-6-(4-fluorophenyl)thieno[2,3-d]pyrimidin-4-yl]oxy}-3-{2-[2-(dimethylamino)ethoxy]phenyl}propanoic acid]
7.3e-09 M	COc1nccc(COc2ccccc2CC(Oc2ncnc3sc(-c4ccc(F)c(OCCN5CCN(C)CC5)c4)c(-c4ccc(OC)c(Cl)c4C)c23)C(=O)O)n1 [Example 698, (2R)-2-{[(5Sa)-5-(3-chloro-4-methoxy-2-methylphenyl)-6-{4-fluoro-3-[2-(4-methylpiperazin-1-yl)ethoxy]phenyl}thieno[2,3-d]pyrimidin-4-yl]oxy}-3-{2-[(2-methoxypyrimidin-4-yl)methoxy]phenyl}propanoic acid]

Same assay, conditions: partial inhibitors; @ 1 uM test compound

percentage fluorescence polarisation inhibition, Mcl-1 FP	SMILES
45.55% @ 1 uM	COc1nccc(COc2ccccc2C[C@@H](Oc2ncnc3sc(-c4ccc(F)c(OCCN5CCN(C)CC5)c4)c(-c4ccc(OC)c(Cl)c4C)c23)C(=O)O)n1 [Example 697, (2R)-2-{[(5Ra)-5-(3-chloro-4-methoxy-2-methylphenyl)-6-{4-fluoro-3-[2-(4-methylpiperazin-1-yl)ethoxy]phenyl}thieno[2,3-d]pyrimidin-4-yl]oxy}-3-{2-[(2-methoxypyrimidin-4-yl)methoxy]phenyl}propanoic acid]

Same assay, conditions: partial inhibitors; @ 10 uM test compound

percentage fluorescence polarisation inhibition, Mcl-1 FP	SMILES
10.7% @ 10 uM	CCOC(=O)[C@@H](Cc1ccccc1OCC(F)(F)F)Oc1ncnc2sc(-c3ccc(F)cc3)c(-c3ccc(OCCN(C)C)c(Cl)c3C)c12 [Example 634, ethyl (2R)-2-{[(5Sa)-5-{3-chloro-4-[2-(dimethylamino)ethoxy]-2-methylphenyl}-6-(4-fluorophenyl)thieno[2,3-d]pyrimidin-4-yl]oxy}-3-[2-(2,2,2-trifluoroethoxy)phenyl]propanoate]
50.75% @ 10 uM	CCOC(=O)[C@@H](Cc1ccccc1OCC(F)(F)F)Oc1ncnc2sc(-c3ccc(F)cc3)c(-c3ccc(OCCN4CCN(C)CC4)c(Cl)c3C)c12 [Example 635, ethyl (2R)-2-{[(5Sa)-5-{3-chloro-2-methyl-4-[2-(4-methylpiperazin-1-yl)ethoxy]phenyl}-6-(4-fluorophenyl)thieno[2,3-d]pyrimidin-4-yl]oxy}-3-[2-(2,2,2-trifluoroethoxy)phenyl]propanoate]
5.9% @ 10 uM	CCOC(=O)[C@@H](Cc1ccccc1OCC(F)(F)F)Oc1ncnc2sc(-c3ccc(F)cc3)c(-c3ccc(OCCN4CCOCC4)c(Cl)c3C)c12 [Example 637, ethyl (2R)-2-{[(5Sa)-5-{3-chloro-2-methyl-4-[2-(morpholin-4-yl)ethoxy]phenyl}-6-(4-fluorophenyl)thieno[2,3-d]pyrimidin-4-yl]oxy}-3-[2-(2,2,2-trifluoroethoxy)phenyl]propanoate]
42.4% @ 10 uM	COc1ccccc1C[C@@H](Oc1ncnc2sc(-c3ccc(F)cc3)c(-c3ccc(OCCN4CCN(C)CC4)c(Cl)c3C)c12)C(=O)Oc1ccc2c(c1)CCC2 [Example 640, 2,3-dihydro-1H-inden-5-yl (2R)-2-{[(5Sa)-5-{3-chloro-2-methyl-4-[2-(4-methylpiperazin-1-yl)ethoxy]phenyl}-6-(4-fluorophenyl)thieno[2,3-d]pyrimidin-4-yl]oxy}-3-(2-methoxyphenyl)propanoate]
11% @ 10 uM	CCOC(=O)[C@@H](Cc1ccccc1OC)Oc1ncnc2sc(-c3ccc(F)cc3)c(-c3ccc(OCCN4CCN(C)CC4)c(Cl)c3C)c12 [Example 642, ethyl (2R)-2-{[(5Sa)-5-{3-chloro-2-methyl-4-[2-(4-methylpiperazin-1-yl)ethoxy]phenyl}-6-(4-fluorophenyl)thieno[2,3-d]pyrimidin-4-yl]oxy}-3-(2-methoxyphenyl)propanoate]

Same assay, conditions: partial inhibitors; @ 1000 uM test compound

percentage fluorescence polarisation inhibition, Mcl-1 FP	SMILES
71.7 % @ 1000 uM	CCOC(=O)[C@@H](Cc1ccccc1OC)Oc1ncnc2sc(-c3ccsc3)c(-c3ccc(O)c(Cl)c3C)c12 [Example 636, ethyl (2R)-2-{[(5Sa)-5-(3-chloro-4-hydroxy-2-methylphenyl)-6-(thiophen-3-yl)thieno[2,3-d]pyrimidin-4-yl]oxy}-3-(2-methoxyphenyl)propanoate]
